Data reported in PubChem BioAssay AID1259407 (Chemical Carcinogenesis Research Information System (CCRIS), 2018).
The source made the active and inactive calls. No rule for the calls is given here.

Test system: CCRIS mutagenicity, Ames/micronucleus/aberration tests
Test: CCRIS mutagenicity studies
[1] = Test System: AMES SALMONELLA TYPHIMURIUM, Strain/Indicator: TA98, Metabolic Activation: NONE, Method: STANDARD PLATE
[2] = Test System: AMES SALMONELLA TYPHIMURIUM, Strain/Indicator: TA98, Metabolic Activation: RAT, LIVER, S-9, AROCLOR 1254, Method: STANDARD PLATE
[3] = Test System: AMES SALMONELLA TYPHIMURIUM, Strain/Indicator: TA100, Metabolic Activation: NONE, Method: STANDARD PLATE
[4] = Test System: AMES SALMONELLA TYPHIMURIUM, Strain/Indicator: TA100, Metabolic Activation: RAT, LIVER, S-9, AROCLOR 1254, Method: STANDARD PLATE
[5] = Test System: AMES SALMONELLA TYPHIMURIUM, Strain/Indicator: TA1535, Metabolic Activation: NONE, Method: STANDARD PLATE
[6] = Test System: AMES SALMONELLA TYPHIMURIUM, Strain/Indicator: TA1535, Metabolic Activation: RAT, LIVER, S-9, AROCLOR 1254, Method: STANDARD PLATE
[7] = Test System: AMES SALMONELLA TYPHIMURIUM, Strain/Indicator: TA1537, Metabolic Activation: NONE, Method: STANDARD PLATE
[8] = Test System: AMES SALMONELLA TYPHIMURIUM, Strain/Indicator: TA1537, Metabolic Activation: RAT, LIVER, S-9, AROCLOR 1254, Method: STANDARD PLATE
[9] = Test System: AMES SALMONELLA TYPHIMURIUM, Strain/Indicator: TA1538, Metabolic Activation: NONE, Method: STANDARD PLATE
[10] = Test System: AMES SALMONELLA TYPHIMURIUM, Strain/Indicator: TA1538, Metabolic Activation: RAT, LIVER, S-9, AROCLOR 1254, Method: STANDARD PLATE

In the case of `C#C[C@]1(O)CC[C@H]2[C@@H]3CCC4=CC(=O)CC[C@@H]4[C@H]3CC[C@@]21CC`, the mutagenic call (End Point: IN VITRO CHROMOSOMAL ABERRATIONS, Test System: HUMAN LYMPHOCYTES, Metabolic Activation: NONE) is reported as “active; positive at two higher doses (structural changes)”, the mutagenic call (End Point: IN VITRO CHROMOSOMAL ABERRATIONS, Test System: HUMAN LYMPHOCYTES, Metabolic Activation: RAT, LIVER, S-9, PHENOBARBITONE) is reported as “active; positive at all dose levels (structural changes)” and the mutagenic call (Test System: AMES SALMONELLA TYPHIMURIUM, Strain/Indicator: TA98, Metabolic Activation: MOUSE, LIVER, S-9, Method: STANDARD PLATE) is reported as “inactive; negative”. The mutagenic call [1] was “inactive; negative”, the mutagenic call [2] was “inactive; negative” and the mutagenic call (Test System: AMES SALMONELLA TYPHIMURIUM, Strain/Indicator: TA100, Metabolic Activation: MOUSE, LIVER, S-9, Method: STANDARD PLATE) was “inactive; negative”. For the same compound, the mutagenic call [3] was “inactive; negative”, the mutagenic call [4] was “inactive; negative” and the mutagenic call (Test System: AMES SALMONELLA TYPHIMURIUM, Strain/Indicator: TA1535, Metabolic Activation: MOUSE, LIVER, S-9, Method: STANDARD PLATE) was “inactive; negative”. For the same compound, the mutagenic call [5] was “inactive; negative”, the mutagenic call [6] was “inactive; negative” and the mutagenic call (Test System: AMES SALMONELLA TYPHIMURIUM, Strain/Indicator: TA1537, Metabolic Activation: MOUSE, LIVER, S-9, Method: STANDARD PLATE) was “inactive; negative”. The mutagenic call [7] was “inactive; negative”, the mutagenic call [8] was “inactive; negative” and the mutagenic call (Test System: AMES SALMONELLA TYPHIMURIUM, Strain/Indicator: TA1538, Metabolic Activation: MOUSE, LIVER, S-9, Method: STANDARD PLATE) was “inactive; negative”. For the same compound, the mutagenic call [9] was “inactive; negative” and the mutagenic call [10] was “inactive; negative”.
`COC(=O)c1ccc(/C=N/n2nnc3c([nH]c4ccccc43)c2=O)cc1` was tested, and the mutagenic call (Test System: AMES SALMONELLA TYPHIMURIUM, Strain/Indicator: TA97, Metabolic Activation: NONE, Method: PREINCUBATION) was “active; positive”, the mutagenic call (Test System: AMES SALMONELLA TYPHIMURIUM, Strain/Indicator: TA97, Metabolic Activation: RAT, LIVER, S-9, AROCLOR 1254 (10%), Method: PREINCUBATION) was “active; positive” and the mutagenic call (Test System: AMES SALMONELLA TYPHIMURIUM, Strain/Indicator: TA98, Metabolic Activation: NONE, Method: PREINCUBATION) was “active; positive”. For the same compound, the mutagenic call (Test System: AMES SALMONELLA TYPHIMURIUM, Strain/Indicator: TA98, Metabolic Activation: RAT, LIVER, S-9, AROCLOR 1254 (10%), Method: PREINCUBATION) was “active; positive”, the mutagenic call (Test System: AMES SALMONELLA TYPHIMURIUM, Strain/Indicator: TA100, Metabolic Activation: NONE, Method: PREINCUBATION) was “inactive; negative” and the mutagenic call (Test System: AMES SALMONELLA TYPHIMURIUM, Strain/Indicator: TA100, Metabolic Activation: RAT, LIVER, S-9, AROCLOR 1254 (10%), Method: PREINCUBATION) was “active; positive”. The mutagenic call (Test System: AMES SALMONELLA TYPHIMURIUM, Strain/Indicator: TA102, Metabolic Activation: NONE, Method: PREINCUBATION) was “inactive; negative” and the mutagenic call (Test System: AMES SALMONELLA TYPHIMURIUM, Strain/Indicator: TA102, Metabolic Activation: RAT, LIVER, S-9, AROCLOR 1254 (10%), Method: PREINCUBATION) was “active; positive”.
`C[C@@H]1O[C@@H]1c1ccccc1` was tested, and the mutagenic call (Test System: AMES SALMONELLA TYPHIMURIUM, Strain/Indicator: TA98, Metabolic Activation: NONE, Method: PREINCUBATION (PHOSPHATE-BUFFERED KCL OR SOLUTE-FREE WATER MEDIA)) was “inactive; negative”, the mutagenic call (Test System: AMES SALMONELLA TYPHIMURIUM, Strain/Indicator: TA100, Metabolic Activation: NONE, Method: PREINCUBATION (PHOSPHATE-BUFFERED KCL OR SOLUTE-FREE WATER MEDIA)) was “inactive; negative” and the mutagenic call (Test System: AMES SALMONELLA TYPHIMURIUM, Strain/Indicator: TA104, Metabolic Activation: NONE, Method: PREINCUBATION (PHOSPHATE-BUFFERED KCL OR SOLUTE-FREE WATER MEDIA)) was “inactive; negative”. The mutagenic call (Test System: CHINESE HAMSTER V-79, Strain/Indicator: V-79 (HPRT)/6-THIOGUANINE, Metabolic Activation: NONE) was “inactive; negative”.
With `CCCCOc1c(C(=O)NOC(C)=O)cccc1[N+](=O)[O-]` the mutagenic call [3] was “inactive; negative” and the mutagenic call (Test System: AMES SALMONELLA TYPHIMURIUM, Strain/Indicator: TA100, Metabolic Activation: RAT, S-9, AROCLOR, Method: STANDARD PLATE) was “active; positive”.
For `NC(Cn1ccnc1)C(=O)O` (stereo unspecified), the mutagenic call (Test System: AMES SALMONELLA TYPHIMURIUM, Strain/Indicator: TA98, Metabolic Activation: NONE) was “inactive; negative”, the mutagenic call (Test System: AMES SALMONELLA TYPHIMURIUM, Strain/Indicator: TA100, Metabolic Activation: NONE) was “inactive; negative” and the mutagenic call (Test System: AMES SALMONELLA TYPHIMURIUM, Strain/Indicator: TA102, Metabolic Activation: NONE) was “inactive; negative”. For the same compound, the mutagenic call (Test System: AMES SALMONELLA TYPHIMURIUM, Strain/Indicator: TA1535, Metabolic Activation: NONE) was “inactive; negative”, the mutagenic call (Test System: AMES SALMONELLA TYPHIMURIUM, Strain/Indicator: TP2428, Metabolic Activation: NONE) was “inactive; negative” and the mutagenic call (Test System: E. COLI, Strain/Indicator: WP2 UVRA (PKM101), Metabolic Activation: NONE) was “active; positive”.
For `CCC(C)Nc1snc2ccccc12` (stereo unspecified), the mutagenic call [1] was “inactive; negative”, the mutagenic call (Test System: AMES SALMONELLA TYPHIMURIUM, Strain/Indicator: TA98, Metabolic Activation: S-9, Method: STANDARD PLATE) was “inactive; negative” and the mutagenic call [3] was “inactive; negative”. For the same compound, the mutagenic call (Test System: AMES SALMONELLA TYPHIMURIUM, Strain/Indicator: TA100, Metabolic Activation: S-9, Method: STANDARD PLATE) was “inactive; negative”, the mutagenic call [5] was “inactive; negative” and the mutagenic call (Test System: AMES SALMONELLA TYPHIMURIUM, Strain/Indicator: TA1535, Metabolic Activation: S-9, Method: STANDARD PLATE) was “inactive; negative”. The mutagenic call [7] was “inactive; negative” and the mutagenic call (Test System: AMES SALMONELLA TYPHIMURIUM, Strain/Indicator: TA1537, Metabolic Activation: S-9, Method: STANDARD PLATE) was “inactive; negative”.
`C=C(C)C(=O)OCCCCOC(=O)C(=C)C` was tested, and the mutagenic call [1] was “inactive; negative”, the mutagenic call [2] was “inactive; negative” and the mutagenic call (Test System: AMES SALMONELLA TYPHIMURIUM, Strain/Indicator: TA98, Metabolic Activation: RAT, LIVER, S-9, SODIUM PHENOBARBITAL, Method: STANDARD PLATE) was “inactive; negative”. For the same compound, the mutagenic call [3] was “inactive; negative”, the mutagenic call [4] was “inactive; negative” and the mutagenic call (Test System: AMES SALMONELLA TYPHIMURIUM, Strain/Indicator: TA100, Metabolic Activation: RAT, LIVER, S-9, SODIUM PHENOBARBITAL, Method: STANDARD PLATE) was “inactive; negative”. For the same compound, the mutagenic call [5] was “inactive; negative”, the mutagenic call [6] was “inactive; negative” and the mutagenic call (Test System: AMES SALMONELLA TYPHIMURIUM, Strain/Indicator: TA1535, Metabolic Activation: RAT, LIVER, S-9, SODIUM PHENOBARBITAL, Method: STANDARD PLATE) was “inactive; negative”. For the same compound, the mutagenic call [7] was “inactive; negative”, the mutagenic call [8] was “inactive; negative” and the mutagenic call (Test System: AMES SALMONELLA TYPHIMURIUM, Strain/Indicator: TA1537, Metabolic Activation: RAT, LIVER, S-9, SODIUM PHENOBARBITAL, Method: STANDARD PLATE) was “inactive; negative”. For the same compound, the mutagenic call [9] was “inactive; negative”, the mutagenic call [10] was “inactive; negative” and the mutagenic call (Test System: AMES SALMONELLA TYPHIMURIUM, Strain/Indicator: TA1538, Metabolic Activation: RAT, LIVER, S-9, SODIUM PHENOBARBITAL, Method: STANDARD PLATE) was “inactive; negative”.
In the case of `O=C(O)c1ccccc1[O-].O=C(O)c1ccccc1[O-].O=C(O)c1ccccc1[O-].[Cr+3]`, the mutagenic call (Test System: AMES SALMONELLA TYPHIMURIUM, Strain/Indicator: TA92, Metabolic Activation: NONE, Method: STANDARD PLATE) is reported as “inactive; negative”, the mutagenic call (Test System: AMES SALMONELLA TYPHIMURIUM, Strain/Indicator: TA94, Metabolic Activation: NONE, Method: STANDARD PLATE) is reported as “inactive; negative” and the mutagenic call [1] is reported as “inactive; negative”. The mutagenic call [3] was “inactive; negative”.
For `CC(C)NO`, the mutagenic call (Test System: CHINESE HAMSTER V-79, Strain/Indicator: V-79/6-THIOGUANINE, Metabolic Activation: NONE, Method: SUSPENSION) was “active; positive” and the mutagenic call (Test System: UDS RODENT HEPATOCYTES, Strain/Indicator: THY INCORP (NON-S-PHASE), Metabolic Activation: NONE, Method: LIQUID SCINTILLATION COUNTING) was “inactive; negative”.
